Reference: patent US20140005281A1, “Method of Predicting Increased Risk of Suffering Statin-induced Adverse Drug Reactions” (priority 2012, published 2014)

Legend:
caspase-3 = conditions: mouse, in vivo
Protocol: A firefly luciferase-based assay was used to measure activity of caspase 3 (Caspase-Glo® 3/7, Promega). Muscles were homogenized (25 mM HEPES pH 7.5, 0.1% (v/v) Triton X-100, 5 mM MgCl2, 2 mM 1,4-dithiothreitol, 10 mM NH4Cl, 10 mM 3-methyladenine, 74 μM antipain, 0.15 μM aprotinin, 1.3 mM EDTA, 20 μM leupeptin, and 15 μM pepstatin). After homogenization, a 20 μg protein product was added to the luminometer in triplicates for the protease luminescence assay.
(§1) Serial cryosections of tibialis anterior muscle from statin-treated αC418W and WT mice were stained for calcium deposits (via GBHA) and also for cholinesterase to localize end-plates. Looking at these in adjacent sections, we were able to measure the percent of calcium-positive NMJs as previously described.

αC418W and WT mice = test: GBHA stain for end-plate (NMJ) calcium overload, tibialis anterior muscle
From the text: as §1

[1] = Cholesterol measurement in muscle during statin treatment; format: in vivo, mice; conditions: after 3 days of statin treatment, 44 mg/kg daily oral gavage
Protocol: 800 μl of each sucrose gradient fraction were subjected to the Bligh-Dyer method for the extraction of lipids in solution. Briefly, 3.75 ml 1:2 (v/v) CHC13: MeOH were added to each sample, followed by 1.25 ml of CHCl3, and 1.25 ml of distilled water; after each addition, samples were vigorously vortexed. The organic phase of each sample was carefully extracted and dried under N2(g). Cholesterol was separated from other lipids on rhodamine 6G stained silica gel G plates with petroleum ether/diethyl ether (98:2, v/v) as the solvent system. The spots corresponding to cholesterol was extracted with petroleum ether:ethyl ether (2:3 v/v) and further assayed using the Wako cholesterol E Kit (Wako Chemicals USA, VA) according to the manufacturer's indications.

## CC(C)c1c(C(=O)Nc2ccccc2)c(-c2ccccc2)c(-c2ccc(F)cc2)n1CC[C@@H](O)C[C@@H](O)CC(=O)O [atorvastatin, Atorvastatin calcium]
caspase-3
  caspase-3 activity: did not show an increase
  caspase-3 activity compared with placebo-treated control group: remained unchanged
αC418W and WT mice; WT mice, statin treatment
  NMJ calcium overload: did not cause NMJ calcium overload
αC418W and WT mice; αC418W mice, at 36 days of statin treatment
  NMJ calcium overload (GBHA-positive end-plates), increase over control levels: ~3 fold
[1]
  total cholesterol levels: significantly lowered
